Results published in ChEMBL document CHEMBL1126309, “Aliphatic propargylamines: potent, selective, irreversible monoamine oxidase B inhibitors” (J Med Chem, 1992).

Key:
[1] = biological target: T1, Amine oxidase [flavin-containing] A (Rattus norvegicus, UniProt P21396); test: Inhibition of Monoamine oxidase A of rat liver mitochondrial membranes; type: cell membranes, Membrane
T1 sequence (P21396 whole entry): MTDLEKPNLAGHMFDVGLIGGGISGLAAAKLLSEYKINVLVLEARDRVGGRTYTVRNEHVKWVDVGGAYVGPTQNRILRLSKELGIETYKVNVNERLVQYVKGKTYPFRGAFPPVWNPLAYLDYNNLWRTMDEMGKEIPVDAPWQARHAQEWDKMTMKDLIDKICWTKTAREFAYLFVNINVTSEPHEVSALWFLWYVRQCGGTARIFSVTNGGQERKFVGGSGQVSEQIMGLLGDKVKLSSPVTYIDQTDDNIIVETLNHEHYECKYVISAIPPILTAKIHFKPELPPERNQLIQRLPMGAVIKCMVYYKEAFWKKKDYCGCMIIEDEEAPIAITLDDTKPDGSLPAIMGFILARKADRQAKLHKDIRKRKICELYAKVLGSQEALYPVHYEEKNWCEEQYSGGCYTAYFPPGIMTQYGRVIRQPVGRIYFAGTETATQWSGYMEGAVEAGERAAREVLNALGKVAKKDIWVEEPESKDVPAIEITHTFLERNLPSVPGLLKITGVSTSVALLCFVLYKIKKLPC

[2] = biological target: T2, Amine oxidase [flavin-containing] B (Rattus norvegicus, UniProt P19643); test: Inhibition of Monoamine oxidase B of rat liver mitochondrial membranes; type: cell membranes, Membrane
T2 sequence (P19643 whole entry): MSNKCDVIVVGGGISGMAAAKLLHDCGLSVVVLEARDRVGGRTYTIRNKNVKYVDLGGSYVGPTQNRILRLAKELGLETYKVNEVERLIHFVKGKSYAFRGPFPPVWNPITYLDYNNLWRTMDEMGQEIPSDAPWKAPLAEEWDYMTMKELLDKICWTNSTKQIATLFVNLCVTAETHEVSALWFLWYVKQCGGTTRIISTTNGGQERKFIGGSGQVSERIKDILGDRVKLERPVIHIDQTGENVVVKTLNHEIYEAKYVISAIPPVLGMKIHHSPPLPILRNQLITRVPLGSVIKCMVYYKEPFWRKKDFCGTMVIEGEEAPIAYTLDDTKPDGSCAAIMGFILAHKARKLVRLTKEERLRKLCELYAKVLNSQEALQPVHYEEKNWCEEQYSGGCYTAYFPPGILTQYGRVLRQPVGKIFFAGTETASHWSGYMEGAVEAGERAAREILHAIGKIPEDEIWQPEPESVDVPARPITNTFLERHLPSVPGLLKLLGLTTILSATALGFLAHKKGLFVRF

[3] = tested on: Mus musculus; test: MAO activities in the mouse brain after oral administration of compound towards PE (1.9 x 10e-5 M) substrate; type: functional
[4] = tested on: Mus musculus; test: MAO activities in the mouse brain after intraperitoneal administration of compound towards 5-HT (5 x 10e-4 M) substrate; type: functional; conditions: ip, read-out: ID50 (the source's name)
[5] = tested on: Mus musculus; test: MAO activities in the mouse brain after intraperitoneal administration of compound towards PE (1.9 x 10e-5 M) substrate; type: functional; conditions: ip, read-out: ID50 (the source's name)
[6] = tested on: Mus musculus; test: MAO activities in the mouse brain after oral administration of compound towards 5-HT (5 x 10e-4 M) substrate; type: functional
[7] = tested on: Rattus norvegicus; test: MAO activity evaluated in dissected forebrain of rat after 2 hr of administration; type: functional
[8] = tested on: Mus musculus; test: Compound was evaluated for MAO-B activity after 20 days of chronic peritoneal administration in mouse fore brain at dose of 0.05 mg/kg; type: functional
[9] = tested on: Mus musculus; test: Compound was evaluated for MAO-B activity after 1 day of chronic peritoneal administration in mouse fore brain at dose of 0.05 mg/kg; type: functional
[10] = tested on: Mus musculus; test: Compound was evaluated for MAO-A activity after 9 days of chronic peritoneal administration in mouse fore brain at dose of 0.05 mg/kg; type: functional
[11] = tested on: Mus musculus; test: Compound was evaluated for MAO-B activity after 20 day of chronic peritoneal administration in mouse fore brain at dose of 0.2 mg/kg; type: functional
[12] = tested on: Mus musculus; test: Compound was evaluated for MAO-B activity after 9 days of chronic peritoneal administration in mouse fore brain at dose of 0.05 mg/kg; type: functional
[13] = tested on: Mus musculus; test: Compound was evaluated for MAO-A activity after 1 day of chronic peritoneal administration in mouse fore brain at dose of 0.05 mg/kg; type: functional
[14] = tested on: Mus musculus; test: Compound was evaluated for MAO-B activity after 1 day of chronic peritoneal administration in mouse fore brain at dose of 0.2 mg/kg; type: functional
[15] = tested on: Mus musculus; test: Compound was evaluated for MAO-A activity after 1 day of chronic peritoneal administration in mouse fore brain at dose of 0.2 mg/kg; type: functional
[16] = tested on: Mus musculus; test: Compound was evaluated for MAO-A activity after 20 day of chronic peritoneal administration in mouse fore brain at dose of 0.2 mg/kg; type: functional
[17] = tested on: Mus musculus; test: Compound was evaluated for MAO-A activity after 9 day of chronic peritoneal administration in mouse fore brain at dose of 0.2 mg/kg; type: functional
[18] = tested on: Mus musculus; test: Compound was evaluated for MAO-A activity after 20 days of chronic peritoneal administration in mouse fore brain at dose of 0.05 mg/kg; type: functional
[19] = tested on: Mus musculus; test: Compound was evaluated for MAO-B activity after 9 day of chronic peritoneal administration in mouse fore brain at dose of 0.2 mg/kg; type: functional
[20] = biological target: T3, Monoamine oxidase (Rattus norvegicus, UniProt P19643+P21396); type: protein assay
T3 sequence (P19643 whole entry): T2 sequence (P19643 whole entry)
T3 sequence (P21396 whole entry): T1 sequence (P21396 whole entry)

[21] = tested on: Mus musculus; test: Compound was evaluated for MAO-A activity after 1 day of chronic peritoneal administration in mouse fore brain at dose of 0.25 mg/kg; type: functional
[22] = tested on: Mus musculus; test: Compound was evaluated for MAO-A activity after 13 days of chronic peritoneal administration in mouse fore brain at dose of 0.25 mg/kg; type: functional
[23] = tested on: Mus musculus; test: Compound was evaluated for MAO-B activity after 1 day of chronic peritoneal administration in mouse fore brain at dose of 0.25 mg/kg; type: functional
[24] = tested on: Mus musculus; test: Compound was evaluated for MAO-B activity after 13 days of chronic peritoneal administration in mouse fore brain at dose of 0.25 mg/kg; type: functional
[25] = biological target: T3, Monoamine oxidase; test: Compound was evaluated for the inhibition of deamination of dopamine (DA) by Monoamine oxidase at 5 x 10e-4 M; type: protein assay
[26] = tested on: Mus musculus; test: Compound was evaluated for MAO-A activity after 21 days of chronic peritoneal administration in mouse fore brain at dose of 2 mg/kg; type: functional
[27] = tested on: Mus musculus; test: Compound was evaluated for MAO-A activity after 1 days of chronic peritoneal administration in mouse fore brain at dose of 2 mg/kg; type: functional
[28] = tested on: Mus musculus; test: Compound was evaluated for MAO-B activity after 10 days of chronic peritoneal administration in mouse fore brain at dose of 2 mg/kg; type: functional
[29] = tested on: Mus musculus; test: Compound was evaluated for MAO-A activity after 10 days of chronic peritoneal administration in mouse fore brain at dose of 2 mg/kg; type: functional
[30] = tested on: Mus musculus; test: Compound was evaluated for MAO-B activity after 1 days of chronic peritoneal administration in mouse fore brain at dose of 2 mg/kg; type: functional
[31] = tested on: Mus musculus; test: Compound was evaluated for MAO-B activity after 21 days of chronic peritoneal administration in mouse fore brain at dose of 2 mg/kg; type: functional

| Compound | IC50 [1] | IC50 [2] | Relative activity [3] [%] | ED50 [4] [µmol/kg] | ED50 [5] [µmol/kg] | Relative activity [6] [%] | ED50 [7] [µmol/kg] | further results |
| --- | --- | --- | --- | --- | --- | --- | --- | --- |
| C#CCN(C)CCCCC(=O)OCC.O=C(O)C(=O)O | Not Active | Not Active | – | – | – | – | – | – |
| C#CCN(C)CCC(=O)O.O=C(O)C(=O)O | Not Active | Not Active | – | – | – | – | – | – |
| C#CCN(C)CCCCC.O=C(O)C(=O)O | 120000 nM | 370 nM | 72 | > 218 | 6.8 | 97 | – | – |
| C#CCN(C)CCCC.Cl | 98000 nM | 1400 nM | 67 | 478 | 11.2 | 98 | 141 | – |
| C#CCN(C)C(C)CCCC.Cl (centres undefined) | 90000 nM | 82 nM | – | 262 | 1.2 | – | 5.1 | Relative activity [8]: 37%; Relative activity [9]: 55%; Relative activity [10]: 95%; Relative activity [11]: 27%; Relative activity [12]: 41%; Relative activity [13]: 104%; Relative activity [14]: 36%; Relative activity [15]: 103%; Relative activity [16]: 81%; Relative activity [17]: 103%; Relative activity [18]: 76%; Relative activity [19]: 35% |
| C#CCN(C)C(C)CCCCC.Cl (centres undefined) | 19000 nM | 210 nM | 39 | 127 | 2.6 | 99 | – | IC50 [20]: 320 nM |
| C#CCN(C)CCCCCCO.Cl | Not Active | 120000 nM | – | – | – | – | – | – |
| C#CCN(C)C(C)CCCCCCCCCC.Cl (centres undefined) | 1900 nM | 39 nM | 64 | 223 | 15.5 | 107 | – | IC50 [20]: 280 nM |
| C#CCN(C)C(C)CCCCCCCC.Cl (centres undefined) | 3900 nM | 180 nM | 104 | 144 | 15 | 97 | 171 | Relative activity [21]: 85%; Relative activity [22]: 79%; IC50 [20]: 210 nM; Relative activity [23]: 94%; Relative activity [24]: 70% |
| C#CCN(C)C(C)CCCCO.Cl (centres undefined) | Not Active | 130000 nM | – | – | – | – | – | – |
| C#CCNC.Cl | Not Active | Not Active | – | – | – | – | – | – |
| C#CCN(C)C(CC)CC | 2400 nM | 180 nM | – | 52.9 | 2.7 | – | – | – |
| C#CCN(C)C(C)C.Cl | Not Active | 19000 nM | – | – | – | – | – | IC50 [25]: 28000 nM |
| C#CCN(C)C(C)CCC(=O)OCC.Cl (centres undefined) | Not Active | Not Active | – | – | – | – | – | – |
| C#CCN(C)CCCCCCC.Cl | 38000 nM | – | 118 | > 491 | 75.6 | 123 | – | – |
| C#CCN(C)C(C)CCC.Cl.O=C(O)C(=O)O (centres undefined) | 12000 nM | 180 nM | 31 | 114 | 1.7 | 89 | 5.2 | Relative activity [21]: 102%; Relative activity [26]: 31%; Relative activity [22]: 89%; IC50 [20]: 5600 nM; Relative activity [27]: 91%; Relative activity [23]: 94%; Relative activity [24]: 35%; Relative activity [28]: 19%; Relative activity [29]: 49%; Relative activity [30]: 40%; Relative activity [31]: 18% |
| C#CCN(C)C(C)CC (centres undefined) | – | – | – | 69.7 | 4.2 | – | 31 | – |
| C#CCN(C)[C@H](C)Cc1ccccc1 [SELEGILINE] | – | – | – | 143 | 2.3 | – | 26.3 | – |
